Test results: PubChem BioAssay (NCI)
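Dose response: 5 concentrations. Exposure: 48 h. Format: 96-well plates. Endpoint: linear interpolation; highest concentration if not reached. Definition used: TGI = concentration required for complete inhibition of growth.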

Columns and labels:
Test in all cases: growth of human tumour cells (NCI), 48 h
PC-3 prostate = tested on: PC-3 prostate
CCRF-CEM leukemia = tested on: CCRF-CEM leukemia
RPMI-8226 leukemia = tested on: RPMI-8226 leukemia
SK-MEL-28 melanoma = tested on: SK-MEL-28 melanoma
A549 NSCLC = tested on: A549 NSCLC
LOX IMVI melanoma = tested on: LOX IMVI melanoma
NCI-H460 lung = tested on: NCI-H460 lung
T-47D breast = tested on: T-47D breast
SF-295 CNS = tested on: SF-295 CNS
SR leukemia = tested on: SR leukemia
OVCAR-4 ovarian = tested on: OVCAR-4 ovarian
HCT-15 colon = tested on: HCT-15 colon
IGROV1 ovarian = tested on: IGROV1 ovarian

Compound	TGI (PC-3 prostate)	TGI (CCRF-CEM leukemia)	TGI (RPMI-8226 leukemia)	TGI (SK-MEL-28 melanoma)	TGI (A549 NSCLC)	TGI (LOX IMVI melanoma)	TGI (NCI-H460 lung)	TGI (T-47D breast)	TGI (SF-295 CNS)	TGI (SR leukemia)	TGI (OVCAR-4 ovarian)	TGI (HCT-15 colon)	TGI (IGROV1 ovarian)
Cc1nc2ccc(F)cc2c(Cl)c1CCCl	> 100 µM	48.4 µM	> 100 µM	> 100 µM	> 100 µM	82.8 µM	> 100 µM	> 100 µM	> 100 µM	44.9 µM	> 100 µM	> 100 µM	> 100 µM
CCC(CC)(CO)CNc1cc(Cl)nc(N)n1	> 100 µM	> 100 µM	> 100 µM	> 100 µM	> 100 µM	> 100 µM	> 100 µM	> 100 µM	> 100 µM	> 100 µM	> 100 µM	> 100 µM	> 100 µM
N/C(=N\Nc1ccc(Cl)cc1)c1cnccn1	> 100 µM	> 100 µM	> 100 µM	> 100 µM	> 100 µM	> 100 µM	> 100 µM	> 100 µM	> 100 µM	> 100 µM	> 100 µM	> 100 µM	> 100 µM
C#C[C@@]1(O)CCCC2=CC3(CC[C@]21C)SCCS3	> 100 µM		> 100 µM	> 100 µM	> 100 µM	> 100 µM	> 100 µM	> 100 µM	> 100 µM	> 100 µM	> 100 µM	> 100 µM	> 100 µM
CN(C)CCNC(=O)c1cccc2nc3c(C(=O)NCCN(C)C)cccc3nc12	2.67 µM	12.7 µM	> 23.6 µM	4.64 µM	6.01 µM	1.49 µM	7.91 µM	34.5 µM	6.46 µM	3.6 µM	2.24 µM	16.5 µM	> 23.3 µM
O=C(C/C(=N/O)C(F)(F)F)c1cccs1	> 100 µM	> 100 µM	> 100 µM	> 100 µM	> 100 µM	> 100 µM	> 100 µM	> 100 µM	> 100 µM	> 100 µM	> 100 µM	> 100 µM	> 100 µM
CC1(C)OC(=O)C(C#N)=C1C[n+]1ccccc1	> 10 µM	> 10 µM	> 10 µM	> 10 µM		> 10 µM	> 10 µM	> 10 µM	> 10 µM	> 10 µM	> 10 µM	> 10 µM	> 10 µM
COC(=O)C(Cc1c[nH]c2ccccc12)NP(=O)(O)OCC1OC(n2cc(Br)c(=O)[nH]c2=O)CC1O (centres undefined)	> 100 µM	> 100 µM		> 100 µM	> 100 µM	> 100 µM	> 100 µM	> 100 µM	> 100 µM	> 100 µM	> 100 µM	> 100 µM	> 100 µM
O=C(O)c1c2c(cc3c1CC1(Cc4cc5c(cc4C1=O)CCC5)C3)CCC2 (centres undefined)	> 100 µM	> 100 µM	> 100 µM	82.5 µM	> 100 µM	> 100 µM	> 100 µM	> 100 µM	> 100 µM	> 100 µM	> 100 µM	> 100 µM	> 100 µM
